# pIC50: −log10 of the molar value.
# Key:
# [1] = Sensory panel: taste of combination with saccharin; format: in vivo, human; conditions: 10 μM with 80 ppm saccharin, pH neutral
# Protocol: The sensory evaluation of the samples was performed by a team of five experienced assessors. The results may be taken from the following Table 3: [table]
# [2] = Sensory panel: taste modulation of green tea; format: in vivo, human; conditions: vs 0.5% ethanol in tea
# Protocol: The sensory evaluation of the samples was performed by a team of five experienced assessors. Details may be taken from the following Table 6: [table]
# [3] = Sensory panel: taste of combination with acesulfame-K; format: in vivo, human; conditions: 25 μM with 150 ppm acesulfame-K, pH neutral
# Protocol: The sensory evaluation of the samples was performed by a team of five experienced assessors. The results may be taken from the following Table 4: [table]
# [4] = Sensory panel: taste modulation of grapefruit juice; format: in vivo, human
# Protocol: The sensory evaluation of the samples was performed by a team of five experienced assessors. Details may be taken from the following Table 7: [table]
# [5] = Sensory panel: taste modulation of a potassium chloride solution; format: in vivo, human; conditions: 50 μM, pH neutral, 1,500 mg KCl in 100 ml water
# Protocol: The sensory evaluation of the samples was performed by a team of five experienced assessors. Details may be taken from the following Table 9: [table]
# [6] = test system: human bitter receptor cells; experiment: In-vitro assay: intracellular calcium mobilisation (Fluo-4 AM) in human bitter receptor cell line stimulated with saccharin; format: cell-based; conditions: human taste cells stimulated with 1 mM saccharin, fluorometric detection, 0.1-25 μM substance; read-out: IC50 (average inhibitory concentration of the antagonist)
# Protocol: Human bitter receptor cells were established, and the activation of these cells was quantified in order to detect, by means of a cell-based test system, natural substances which reduce the bitterness of bitter principles. The change of the intracellular […] level was measured for quantitation of the activation of bitter receptor cells. In order to detect substances with inhibitory activity, a high-throughput cell-based in-vitro measurement system was established. […] The modulation of the intracellular […] level of the bitter receptor cells was quantitated by means of the […] fluorescence dye Fluo-4 AM in a microplate reader. […] The quantity of mobilised calcium may be quantitated by means of fluorescence, which increases in proportion with the concentration of calcium. […] 24 hours after seeding, the cells were dyed with 4 μM of the calcium-sensitive fluorescence dye Fluo-4 AM in HBSS (Hank's Balanced Salt Solution) buffer, and the mobilisation of calcium in living cells was measured in the microplate reader (FlexStation® […], Molecular Devices). […] The mobilisation of calcium was measured in the microplate reader at 37° C. The mobilisation of calcium was quantitated as the change of fluorescence (dF) after the addition of the substance, taking into account the basal fluorescence (F0) as dF/F0. […]
# [7] = cited from earlier work
pIC50 [6],Structure (SMILES),Evaluation (taste with saccharin) [1],Evaluation (taste of green tea) ([2]; 25 μM in Green tea),Evaluation (taste of green tea) ([2]; 50 μM in Green tea),Evaluation (taste with acesulfame-K) [3],Bitter taste of freshly squeezed grapefruit juice [4],Evaluation (taste of potassium chloride solution) [5],Daily uptake considered harmless [7]
5.77,CC(C)c1ccc2c(c1)CC[C@H]1[C@](C)(C(=O)O)CCC[C@]21C [dehydroabietic acid],Slightly bitter aftertaste,Slightly bitter taste that quickly fades,"As in 25 μM, but less astringent",No bitter taste present any more,significant reduction of the bitter taste without negatively influencing the fruit aroma and the refreshing tartness,Less bitter than the comparison sample,
,C=C1C[C@@]23CC[C@H]4[C@@](C)(CCC[C@@]4(C)C(=O)O[C@@H]4O[C@H](CO)[C@@H](O)[C@H](O)[C@H]4O)[C@@H]2CC[C@]1(O[C@@H]1O[C@H](CO)[C@@H](O)[C@H](O)[C@H]1O[C@@H]1O[C@H](CO)[C@@H](O)[C@H](O)[C@H]1O)C3 [stevioside],,,,,,,up to 4 mg per kilogramme of bodyweigh

# Reference: patent publication US10653173B2, “Method for masking unpleasant taste” (Analyticon Discovery GmbH, priority 2015, dated 2020)
